# In patent publication US20090270431A1, “Cyclopentenol Nucleoside Compounds Intermediates for their Synthesis and Methods of Treating Viral Infections” (THE UNIVERSITY OF GEORGIA RESEARCH FOUNDATION, priority 2005, published 2009):
# “Also recorded” adds a separate entry of the source. Where a name gives a salt, the structure may show the parent alone. Read-outs that look alike come from different tables or passages of the source.
# Legend:
# HCV RNA replicon = HCV RNA replicon assay; format: cell-based, hepatitis C virus (HCV); settings: for EC50: Hepatitis C virus; for Activity (% inhibition virus control) / outcome of primary test: primary, single-dilution test
# Experimental: A number of […] 7-deazaneplanocin compounds were tested in vitro to determine activity against hepatitis C virus (HCV).
# [1] = cytotoxicity in the HCV RNA replicon assay; settings: for Cytotoxicity (% cell control): primary, single-dilution test
# HBV strain WT = assay: HBV DR Assay, strain WT; format: cell-based
# [2] = toxicity (CC50) in the anti-HBV test; format: cell-based
# Hepatitis B Virus [3] = assay: in vitro anti-HBV activity, VIR (extracellular virion HBV DNA); format: cell-based
# Experimental: (§1) In the first biological experiment, a number of 7-deazaneplanocin compounds were tested in vitro to determine activity against hepatitis B virus (HBV).
# Hepatitis B Virus [4] = assay: in vitro anti-HBV activity, RI (intracellular HBV DNA replication intermediates); format: cell-based
# Experimental: as §1
# vacinnia virus = format: cell-based; settings: against vacinnia virus
# SARS virus = format: cell-based; settings: against SARS virus
# cowpox virus = format: cell-based; settings: against cowpox virus
# [5] = stability of the isolated compound on standing; format: physicochemical; settings: room temperature, over several days
# Vaccinia = assay: microbe, parasite or virus in culture; format: cell-based, vaccinia virus
# Cowpox = assay: microbe, parasite or virus in culture; format: cell-based, cowpox virus
# Flu A (H3N2) = assay: microbe, parasite or virus in culture; format: cell-based
# HSV-2 = assay: CPE assay, HSV-2 in HFF cells; format: cell-based, herpes simplex virus type 2; settings: Human alphaherpesvirus 2
# SARS = assay: organism not typed; format: cell-based; settings: Vero 76
# Yellow Fever = assay: organism not typed; format: cell-based; settings: Vero
# Adeno = assay: antiviral assay, Adeno in A-549; format: cell-based; settings: unidentified adenovirus, A549, Adeno
# VZV = assay: CPE assay, VZV in HFF cells; format: cell-based, varicella zoster virus; settings: Human alphaherpesvirus 3
# PIV = assay: antiviral assay, PIV in MA-104; format: cell-based, parainfluenza virus
# Flu A = assay: organism not typed; format: cell-based
# Rhinovirus = assay: antiviral assay, Rhinovirus in HeLa Ohio-1; format: cell-based; settings: Enterovirus, HeLa Ohio1, RV, HO-1
# Flu A (H5N1) = assay: microbe, parasite or virus in culture; format: cell-based
# Flu A (H1N1) = assay: microbe, parasite or virus in culture; format: cell-based; settings: Influenza A virus, H1N1, MDCK
# HSV-1 = assay: CPE assay, HSV-1 in HFF cells; format: cell-based, herpes simplex virus type 1; settings: Human alphaherpesvirus 1
# Measles = assay: antiviral assay, Measles in CV-1; format: cell-based; settings: Measles morbillivirus
# HCMV = assay: CPE assay, HCMV in HFF cells; format: cell-based, human cytomegalovirus; settings: Human betaherpesvirus 5
# RSV A = assay: antiviral assay, RSV A in MA-104; format: cell-based; settings: human respiratory syncytial virus, MA104, RSV A
# [6] = test system: vacinnia, cowpox and SARS viruses; format: cell-based
# [7] = Hepatitis B virus, VIR: extracellular virion HBV DNA
# [8] = VIR: extracellular virion HBV DNA
# [9] = HT20, HT @ 20 μM, read-out: EC50
compound,measurement,setting,value
Nc1ncnc2c1c(I)cn2[C@@H]1C=C(CO)C(O)C1O (stereo partly shown),EC50,"HCV RNA replicon; HT @ 5 μM, read-out: EC50",3.07 µM
same,EC50,"HCV RNA replicon; HT @ 100 μM, read-out: EC50",2.14 µM
same,Activity (% inhibition virus control),HCV RNA replicon,89.7%
same,IC50,[1]; HT @ 5 μM,> 5 µM
same,IC50,[1]; HT @ 100 μM,15 µM
same,Cytotoxicity (% cell control),[1],35.2%
Nc1ccn([C@@H]2CS[C@H](CO)O2)c(=O)n1 [Compound 3TC],EC50,HBV strain WT,0.2 µM
same,EC90,HBV strain WT,0.6 µM
"Nc1ncnc2c1c([N+](=O)[O-])cn2[C@@H]1C=C(CO)[C@H](O)C1O (stereo partly shown) [Compound 22, 7—Deaza-7-Nitro-Neplanocin A]",melting point,,245 to 246 °C
same,CC50,[2],> 300 µM
same,EC50,Hepatitis B Virus [3]; [7],> 10 µM
same,EC90,Hepatitis B Virus [3]; [7],> 10 µM
Nc1ncnc2c1c(F)cn2[C@@H]1C=C(CO)C(O)C1O (stereo partly shown),Activity (% inhibition virus control),HCV RNA replicon,9.5%
same,outcome of primary test,HCV RNA replicon,"Inactive in primary, single-dilution test"
same,Cytotoxicity (% cell control),[1],112.7%
Nc1ncnc2c1c([N+](=O)[O-])cn2[C@@H]1C=C(CO)C(O)C1O (stereo partly shown),Activity (% inhibition virus control),HCV RNA replicon,31.5%
same,Cytotoxicity (% cell control),[1],101.5%
N#Cc1cn([C@@H]2C=C(CO)C(O)C2O)c2ncnc(N)c12 (stereo partly shown),Activity (% inhibition virus control),HCV RNA replicon,0.5%
same,outcome of primary test,HCV RNA replicon,"Inactive in primary, single-dilution test"
same,Cytotoxicity (% cell control),[1],103.3%
"C#Cc1cn([C@@H]2C=C(CO)C(O)C2O)c2ncnc(N)c12 (stereo partly shown) [Compound 27, 7-Deaza-7-Acetylene-Neplanocin A]",EC50,Hepatitis B Virus [4]; Hepatitis B virus,1.8 µM
same,EC90,Hepatitis B Virus [4]; Hepatitis B virus,7.9 µM
same,EC50,HBV strain WT; Hepatitis B virus,2.5 µM
same,EC90,HBV strain WT; Hepatitis B virus,8.7 µM
same,melting point,,126 to 128 °C
same,CC50,[2],> 300 µM
same,EC50,Hepatitis B Virus [3]; [7],0.315 µM
same,EC90,Hepatitis B Virus [3]; [7],1.6 µM
"Nc1ncnc2c1c(Cl)cn2[C@@H]1C=C(CO)[C@@H](O)[C@H]1O [Compound 11, 7-Deaza-7-Chloro Neplanocin A]",CC50,[2],> 300 µM
same,EC50,Hepatitis B Virus [3]; [8],> 10 µM
same,EC90,Hepatitis B Virus [3]; [8],> 10 µM
"N#Cc1cn([C@@H]2C=C(CO)[C@@H](O)[C@H]2O)c2ncnc(N)c12 [Compound 17, 7-Deaza-7-Cyano-Neplanocin A]",CC50,[2],> 300 µM
same,EC50,Hepatitis B Virus [3]; [8],> 10 µM
same,EC90,Hepatitis B Virus [3]; [8],> 10 µM
Nc1ncnc2c1c(Br)cn2[C@@H]1C=C(CO)C(O)C1O (stereo partly shown),EC50,HCV RNA replicon; [9],10.5 µM
same,EC50,"HCV RNA replicon; HT @ 100 μM, read-out: EC50",16.7 µM
same,Activity (% inhibition virus control),HCV RNA replicon,80.9%
same,IC50,"[1]; HT20, HT @ 20 μM",> 20 µM
same,IC50,[1]; HT @ 100 μM,41.7 µM
same,Cytotoxicity (% cell control),[1],76.3%
"Nc1ncnc2c1c(I)cn2[C@@H]1C=C(CO)[C@@H](O)[C@H]1O [Compound 13, 7-Deaza-7-Iodo Neplanocin A]",EC50,Hepatitis B Virus [4],1.6 µM
same,EC90,Hepatitis B Virus [4],5.9 µM
same,CC50,[2],> 300 µM
same,EC50,Hepatitis B Virus [3]; [8],0.431 µM
same,EC90,Hepatitis B Virus [3]; [8],1.8 µM
Nc1nc2c(ccn2[C@@H]2C=C(CO)C(O)C2O)c(=O)[nH]1 (stereo partly shown),Activity (% inhibition virus control),HCV RNA replicon,10.1%
same,outcome of primary test,HCV RNA replicon,"Inactive in primary, single-dilution test"
same,Cytotoxicity (% cell control),[1],99.8%
"Nc1ncnc2c1c(Br)cn2[C@@H]1C=C(CO)[C@@H](O)[C@H]1O [Compound 12, 7-Deaza-7-Bromo Neplanocin A]",CC50,[2],> 300 µM
same,EC50,Hepatitis B Virus [3]; [8],> 10 µM
same,EC90,Hepatitis B Virus [3]; [8],> 10 µM
"NC(=O)c1cn(C2C=C(CO)C(O)C2O)nn1 (stereo not shown) [Compound 17c, 1-(4,5-Dihydroxy-3-hydroxymethyl-cyclopenten-2-enyl)-1H-[1,2,3]triazole-4-carboxylic acid amide]",EC50,vacinnia virus,0.4 µM
same,EC50,SARS virus,47 µM
same,EC50,cowpox virus,39 µM
Nc1ncnc2c1c(F)cn2[C@@H]1C=C(CO)[C@@H](O)[C@H]1O [Compound 10],CC50,[2],> 300 µM
same,EC50,Hepatitis B Virus [3]; [8],> 10 µM
same,EC90,Hepatitis B Virus [3]; [8],> 10 µM
C=Cc1cn([C@@H]2C=C(CO)C(O)C2O)c2ncnc(N)c12 (stereo partly shown),Activity (% inhibition virus control),HCV RNA replicon,49.2%
same,Cytotoxicity (% cell control),[1],99.7%
7-Deaza-7-Amino-Neplanocin A [Compound 23],stability,[5],not stable; also recorded: slowly decomposed in room temperature
"Nc1ccn(C[C@@H](CO)OCP(=O)(O)O)c(=O)n1 [Cidofovir, reference compound]",EC50,"Vaccinia; Orthopoxvirus vaccinia, HFF",4 µM
same,EC50,"Cowpox; Cowpox virus, HFF",5 µM
"1-(4,5-Dihydroxy-3-hydroxymethyl-cyclopenten-2-enyl)-1H-[1,2,4]triazole-3-carboxylic acid amide [Compound 17a]",EC50,SARS virus,21 µM
"NC(=O)c1cn([C@@H]2C=C(CO)[C@@H](O)[C@H]2O)c2ncnc(N)c12 [Compound 18, 7-Deaza-7-Amido-Neplanocin A]",CC50,[2],> 300 µM
same,EC50,Hepatitis B Virus [3]; [8],> 10 µM
same,EC90,Hepatitis B Virus [3]; [8],> 10 µM
"Nc1nccc2c1ncn2[C@@H]1C=C(CO)[C@@H](O)[C@H]1O [Compound 3-DNPA, (−)-1-[(1R,4R,5S)-3-(Hydroxymethyl)-4,5-dihydroxy-2-cyclopenten-1-yl]-4-aminoimidazo[4,5-c]pyridine Hydrochloride]",EC50,"Flu A (H3N2); Flu A (H3N2), Visual, MDCK",> 100 µM
same,EC50,"Flu A (H3N2); Influenza A virus, H3N2, MDCK",> 100 µM
same,EC50,HSV-2,43.5 µM
same,EC50,"SARS; SARS, Visual",> 100 µM
same,EC50,SARS,> 100 µM
same,EC50,Yellow Fever,> 100 µM
same,EC50,"Yellow Fever; YF, Visual",> 100 µM
same,EC50,Adeno; NR,17 µM
same,EC50,Adeno; Visual,24 µM
same,EC50,VZV,> 300 µM
same,EC50,"PIV; MA104, NR",> 100 µM
same,EC50,PIV; Visual,> 100 µM
same,EC50,Flu A,> 100 µM
same,EC50,Rhinovirus; NR,4 µM
same,EC50,Rhinovirus; Visual,32 µM
same,EC50,"HCV RNA replicon; Huh7 ET, HCV, HRR (HCV RNA replicon), Huh7 ET, read-out: EC50",1.44 µM
same,EC50,"Flu A (H5N1); Flu A (H5N1), Visual, MDCK",> 100 µM
same,EC50,"Flu A (H5N1); Influenza A virus, H5N1, MDCK",> 100 µM
same,EC50,Flu A (H1N1); NR,> 25 µM
same,EC50,Flu A (H1N1); Visual,> 100 µM
same,EC50,HSV-1,> 300 µM
same,EC50,Measles; NR,0.4 µM
same,EC50,Measles; Visual,0.9 µM
same,EC50,"Vaccinia; Orthopoxvirus vaccinia, HFF",2.9 µM
same,EC50,"Hepatitis B Virus [3]; Hepatitis B virus, HBV, VIR, Huh7 ET (Table 3)",0.59 µM
same,EC50,"Cowpox; Cowpox virus, HFF",182 µM
same,EC50,HCMV,0.36 µM
same,EC50,RSV A; NR,4 µM
same,EC50,RSV A; Visual,100 µM
CC(C)(C)C(=O)OCOP(=O)(COCCn1cnc2c(N)ncnc21)OCOC(=O)C(C)(C)C [ADV],EC50,HBV strain WT,1.3 µM
same,EC90,HBV strain WT,6 µM
NC(=O)c1cn([C@@H]2C=C(CO)C(O)C2O)c2ncnc(N)c12 (stereo partly shown),EC50,"HCV RNA replicon; HT not given, read-out: EC50",1.85 µM
same,Activity (% inhibition virus control),HCV RNA replicon,93.5%
same,IC50,[1]; HT not given,11.8 µM
same,Cytotoxicity (% cell control),[1],44.2%
C#Cc1cn([C@@H]2C=C(CO)C(O)C2O)c2ncnc(N)c12 (stereo partly shown) [drawing 37],EC50,HCV RNA replicon; [9],12.3 µM
same,EC50,"HCV RNA replicon; HT @ 100 μM, read-out: EC50",20.1 µM
same,Activity (% inhibition virus control),HCV RNA replicon,73.3%
same,IC50,"[1]; HT20, HT @ 20 μM",> 20 µM
same,IC50,[1]; HT @ 100 μM,48.9 µM
same,Cytotoxicity (% cell control),[1],86.6%
Nc1ncnc2c1ccn2[C@@H]1C=C(CO)[C@@H](O)[C@H]1O [7-deaza neplanocin A],CC50,HFF cells,> 300 µM
same,cytotoxicity (none up to),HFF cells,> 300 µM
same,EC90,"Vaccinia; Vaccinia, HFF cells, CPE reduction assay",21.5 µM
same,EC50,"Vaccinia; Vaccinia, HFF cells, CPE reduction assay, read-out: EC50",3.4 µM
same,EC90,"Cowpox; Cowpox, HFF cells, CPE reduction assay",4.6 µM
same,EC50,"Cowpox; Cowpox, HFF cells, CPE reduction assay, read-out: EC50",1.2 µM
Nc1ncnc2c1c(Cl)cn2[C@@H]1C=C(CO)C(O)C1O (stereo partly shown),EC50,HCV RNA replicon; HT @ 100 μM,14.7 µM
same,Activity (% inhibition virus control),HCV RNA replicon,70.6%
same,IC50,[1]; HT @ 100 μM,50.1 µM
same,Cytotoxicity (% cell control),[1],81.2%
"C=Cc1cn([C@@H]2C=C(CO)[C@H](O)C2O)c2ncnc(N)c12 (stereo partly shown) [Compound 25, 7-Deaza-7-Vinyl-Substituted Neplanocin A]",EC50,Hepatitis B Virus [4]; Hepatitis B virus,10 µM
same,EC90,Hepatitis B Virus [4]; Hepatitis B virus,26 µM
same,melting point,,168 to 170 °C
same,CC50,[2],> 300 µM
same,EC50,Hepatitis B Virus [3]; [7],3.3 µM
same,EC90,Hepatitis B Virus [3]; [7],9.1 µM
"NC(=O)c1cn(C2C=C(CO)C(O)C2O)cn1 (stereo not shown) [Compound 17b, 1-(4,5-Dihydroxy-3-hydroxymethyl-cyclopenten-2-enyl)-1H-imidazole-4-carboxylic acid amide]",antiviral activity,[6],did not show any significant antiviral activity
